Experimental data: patent publication US20050053668A1, “Skeletally targeted nanoparticles” (Southwest Research Institute, priority 2003, published 2005)

Experiments:
unloaded bones = settings: infusion; cited from earlier work
panel of tumor cells = settings: cited from earlier work
[1] = cited from earlier work
myeloma cell = settings: in vitro; cited from earlier work
hindlimb unloaded rats = settings: cited from earlier work
[2] = assay type: physicochemical
Procedure: Lovastatin was encapsulated in MBP-lipid conjugate micelles at ratios ranging from about 1:1 to 1:50 mol:mol lovastatin:lipid using the phase separation technique. All preparations initially produced clear, colorless solutions, indicating complete solubilization of lovastatin by the lipid. However, over time, usually within about 24 hours, needle-like crystals were observed on the surface of the fluid. […] The crystals were confirmed to be lovastatin by HPLC analysis.

IGF-1: insulin-like growth factor, regulates bone formation
dose required to demonstrate any protective effect against unloading (unloaded bones): 2 mg/kg/day

CC(C)C[C@H](NC(=O)[C@H](Cc1ccccc1)NC(=O)c1cnccn1)B(O)O [PS-341]
cytotoxicity (panel of tumor cells): cytotoxic | side-effects in clinical use [1]: thrombocytopenia, peripheral neuropathy, hypotension, and, in severe cases, cardiovascular toxicity | inhibition of myeloma cell growth and survival (myeloma cell): potent inhibitor

TGF-β
effect on bone formation in control animals (hindlimb unloaded rats; infusion 2 μg/kg/day, control animals): has no effect on bone formation | effect on unloading-induced bone changes (hindlimb unloaded rats; infusion 2 μg/kg/day, hindlimb unloading in rats): corrects the decrease in bone mass, calcium content, osteoblast number and mineralization rate | effect on indices of bone resorption (hindlimb unloaded rats; infusion, normal and unloaded rats): decreases the indices of bone resorption

CC[C@H](C)C(=O)O[C@H]1C[C@@H](C)C=C2C=C[C@H](C)[C@H](CC[C@@H]3C[C@@H](O)CC(=O)O3)[C@H]21 [lovastatin]
amount of stabilized lovastatin after ageing [2]: increased slightly | lovastatin stabilized in micelles [2]: about 0.03 μg/μg of lipid | lovastatin stabilized in micelles, molar ratio [2]: ~1:5 mol:mol lovastatin:lipid | lovastatin encapsulated before free drug precipitates ([2]; micelles of MBP-based ligand-phospholipid conjugate, FIG. 9): about 0.03 μg of lovastatin/μg of lipid | time until needle-like lovastatin crystals were observed ([2]; preparations 1:1 to 1:50 mol:mol lovastatin:lipid): ≤ 24 h
